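Cultured in 96-well plates, cells were exposed to test compound for 48 hours across five concentrations. Definition used: TGI = concentration required for complete inhibition of growth.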
Assays:
Test in all cases: growth of human tumour cells (NCI), 48 h
MDA-N = test system: MDA-N
SNB-19 CNS = test system: SNB-19 CNS
HCT-15 colon = test system: HCT-15 colon
HS 578T breast = test system: HS 578T breast
ACHN renal = test system: ACHN renal
HOP-62 NSCLC = test system: HOP-62 NSCLC
SF-295 CNS = test system: SF-295 CNS
T-47D breast = test system: T-47D breast
OVCAR-3 ovarian = test system: OVCAR-3 ovarian
CCRF-CEM leukemia = test system: CCRF-CEM leukemia
TK-10 renal = test system: TK-10 renal
SK-MEL-5 melanoma = test system: SK-MEL-5 melanoma
OVCAR-5 ovarian = test system: OVCAR-5 ovarian
NCI-H522 lung = test system: NCI-H522 lung
KM12 colon = test system: KM12 colon
SF-268 CNS = test system: SF-268 CNS
SNB-75 CNS = test system: SNB-75 CNS
BT-549 breast = test system: BT-549 breast
MCF7 breast = test system: MCF7 breast
NCI-H460 lung = test system: NCI-H460 lung
RPMI-8226 leukemia = test system: RPMI-8226 leukemia
NCI/ADR-RES ovarian = test system: NCI/ADR-RES ovarian
SK-MEL-28 melanoma = test system: SK-MEL-28 melanoma
PC-3 prostate = test system: PC-3 prostate
UACC-257 melanoma = test system: UACC-257 melanoma
NCI-H226 lung = test system: NCI-H226 lung
COLO 205 colon = test system: COLO 205 colon
CAKI-1 renal = test system: CAKI-1 renal
DU-145 prostate = test system: DU-145 prostate
A549 NSCLC = test system: A549 NSCLC
MDA-MB-231 breast = test system: MDA-MB-231 breast
HL-60(TB) leukemia = test system: HL-60(TB) leukemia
M14 melanoma = test system: M14 melanoma
MOLT-4 leukemia = test system: MOLT-4 leukemia
786-0 renal = test system: 786-0 renal
SN12C renal = test system: SN12C renal
K-562 leukemia = test system: K-562 leukemia
NCI-H23 lung = test system: NCI-H23 lung
SR leukemia = test system: SR leukemia
UO-31 renal = test system: UO-31 renal
IGROV1 ovarian = test system: IGROV1 ovarian
HCT-116 colon = test system: HCT-116 colon
MALME-3M melanoma = test system: MALME-3M melanoma
LOX IMVI melanoma = test system: LOX IMVI melanoma
RXF 393 renal = test system: RXF 393 renal
U251 CNS = test system: U251 CNS
HT29 colon = test system: HT29 colon
OVCAR-8 ovarian = test system: OVCAR-8 ovarian
EKVX NSCLC = test system: EKVX NSCLC
SW-620 colon = test system: SW-620 colon
SF-539 CNS = test system: SF-539 CNS
MDA-MB-435 = test system: MDA-MB-435
OVCAR-4 ovarian = test system: OVCAR-4 ovarian
SK-MEL-2 melanoma = test system: SK-MEL-2 melanoma
HOP-92 NSCLC = test system: HOP-92 NSCLC
SK-OV-3 ovarian = test system: SK-OV-3 ovarian

Q: `O=C(C[C@@H]1CCCN2CCCC[C@H]12)N1c2ccccc2Sc2ccc(Cl)cc21` was tested. Which TGI (MDA-N) did it give?
A: The TGI was 30.9 µM.

Q: And the TGI (SNB-19 CNS)?
A: Its TGI is 31.1 µM.

Q: What about the TGI (HCT-15 colon) of the same compound?
A: The TGI was 30.4 µM.

Q: What about the TGI (HS 578T breast) of the same compound?
A: Its TGI is 38.5 µM.

Q: What about the TGI (ACHN renal) of the same compound?
A: The TGI was 27.2 µM.

Q: What about the TGI (HOP-62 NSCLC) of the same compound?
A: Its TGI is 26 µM.

Q: And the TGI (SF-295 CNS)?
A: Its TGI is 36.7 µM.

Q: And the TGI (T-47D breast)?
A: Its TGI is 39.5 µM.

Q: And the TGI (OVCAR-3 ovarian)?
A: Its TGI is 31.9 µM.

Q: What about the TGI (CCRF-CEM leukemia) of the same compound?
A: The TGI was 35.1 µM.

Q: And the TGI (TK-10 renal)?
A: Its TGI is 35.5 µM.

Q: And the TGI (SK-MEL-5 melanoma)?
A: The TGI was 23.9 µM.

Q: What about the TGI (OVCAR-5 ovarian) of the same compound?
A: Its TGI is 26.4 µM.

Q: And the TGI (NCI-H522 lung)?
A: The TGI was 26.9 µM.

Q: What about the TGI (KM12 colon) of the same compound?
A: Its TGI is 27.6 µM.

Q: What about the TGI (SF-268 CNS) of the same compound?
A: Its TGI is 42.8 µM.

Q: And the TGI (SNB-75 CNS)?
A: Its TGI is 33.4 µM.

Q: And the TGI (BT-549 breast)?
A: The TGI was 28 µM.

Q: What about the TGI (MCF7 breast) of the same compound?
A: Its TGI is 35.5 µM.

Q: And the TGI (NCI-H460 lung)?
A: The TGI was 28.3 µM.

Q: What about the TGI (RPMI-8226 leukemia) of the same compound?
A: Its TGI is 54.8 µM.

Q: And the TGI (NCI/ADR-RES ovarian)?
A: The TGI was 29.4 µM.

Q: What about the TGI (SK-MEL-28 melanoma) of the same compound?
A: The TGI was 26.3 µM.

Q: What about the TGI (PC-3 prostate) of the same compound?
A: The TGI was 27.2 µM.

Q: And the TGI (UACC-257 melanoma)?
A: The TGI was 25.6 µM.

Q: And the TGI (NCI-H226 lung)?
A: The TGI was 46 µM.

Q: And the TGI (COLO 205 colon)?
A: The TGI was 26.1 µM.

Q: What about the TGI (CAKI-1 renal) of the same compound?
A: The TGI was 27.6 µM.

Q: What about the TGI (DU-145 prostate) of the same compound?
A: Its TGI is 28.2 µM.

Q: And the TGI (A549 NSCLC)?
A: Its TGI is 30.9 µM.

Q: And the TGI (MDA-MB-231 breast)?
A: The TGI was 28.4 µM.

Q: What about the TGI (HL-60(TB) leukemia) of the same compound?
A: The TGI was 36.8 µM.

Q: And the TGI (M14 melanoma)?
A: Its TGI is 17.9 µM.

Q: And the TGI (MOLT-4 leukemia)?
A: Its TGI is 30 µM.

Q: And the TGI (786-0 renal)?
A: The TGI was 23.1 µM.

Q: And the TGI (SN12C renal)?
A: The TGI was 32.1 µM.

Q: And the TGI (K-562 leukemia)?
A: Its TGI is 35.2 µM.

Q: And the TGI (NCI-H23 lung)?
A: The TGI was 29.1 µM.

Q: And the TGI (SR leukemia)?
A: Its TGI is 53 µM.

Q: And the TGI (UO-31 renal)?
A: Its TGI is 25.9 µM.

Q: What about the TGI (IGROV1 ovarian) of the same compound?
A: The TGI was 25.6 µM.

Q: What about the TGI (HCT-116 colon) of the same compound?
A: Its TGI is 29.5 µM.

Q: And the TGI (MALME-3M melanoma)?
A: The TGI was 31.2 µM.

Q: And the TGI (LOX IMVI melanoma)?
A: The TGI was 27.3 µM.

Q: And the TGI (RXF 393 renal)?
A: The TGI was 29 µM.

Q: And the TGI (U251 CNS)?
A: The TGI was 24.4 µM.

Q: What about the TGI (HT29 colon) of the same compound?
A: The TGI was 22.8 µM.

Q: What about the TGI (OVCAR-8 ovarian) of the same compound?
A: Its TGI is 37.2 µM.

Q: What about the TGI (EKVX NSCLC) of the same compound?
A: The TGI was 33.8 µM.

Q: What about the TGI (SW-620 colon) of the same compound?
A: Its TGI is 26.8 µM.

Q: What about the TGI (SF-539 CNS) of the same compound?
A: The TGI was 32.1 µM.

Q: What about the TGI (MDA-MB-435) of the same compound?
A: Its TGI is 29.3 µM.

Q: Which results are given for `COc1cc(/C=N/NC(=O)c2c(Cl)c(Cl)c(Cl)c(Cl)c2-c2nc3ccc(C(=O)c4ccccc4)cc3[nH]2)ccc1O`?
A: TGI (MDA-N): 52 µM; TGI (SNB-19 CNS): > 100 µM; TGI (HCT-15 colon): > 100 µM; TGI (HS 578T breast): > 100 µM; TGI (ACHN renal): > 100 µM; TGI (HOP-62 NSCLC): > 100 µM; TGI (SF-295 CNS): > 100 µM; TGI (T-47D breast): > 100 µM; TGI (OVCAR-3 ovarian): > 100 µM; TGI (CCRF-CEM leukemia): 81.6 µM; TGI (TK-10 renal): > 100 µM; TGI (SK-MEL-5 melanoma): > 100 µM; TGI (OVCAR-5 ovarian): > 100 µM; TGI (NCI-H522 lung): > 100 µM; TGI (KM12 colon): > 100 µM; TGI (SF-268 CNS): > 100 µM; TGI (SNB-75 CNS): > 100 µM; TGI (BT-549 breast): > 100 µM; TGI (MCF7 breast): > 100 µM; TGI (RPMI-8226 leukemia): 89.5 µM; TGI (NCI/ADR-RES ovarian): 77 µM; TGI (SK-MEL-28 melanoma): > 100 µM; TGI (PC-3 prostate): > 100 µM; TGI (UACC-257 melanoma): > 100 µM; TGI (NCI-H226 lung): > 100 µM; TGI (COLO 205 colon): 58.1 µM; TGI (CAKI-1 renal): > 100 µM; TGI (DU-145 prostate): > 100 µM; TGI (A549 NSCLC): > 100 µM; TGI (OVCAR-4 ovarian): > 100 µM; TGI (MDA-MB-231 breast): > 100 µM; TGI (HL-60(TB) leukemia): 61.1 µM; TGI (M14 melanoma): > 100 µM; TGI (SK-MEL-2 melanoma): > 100 µM; TGI (MOLT-4 leukemia): 64.1 µM; TGI (786-0 renal): > 100 µM; TGI (SN12C renal): > 100 µM; TGI (HOP-92 NSCLC): > 100 µM; TGI (K-562 leukemia): > 100 µM; TGI (NCI-H23 lung): > 100 µM; TGI (SR leukemia): 54.4 µM; TGI (UO-31 renal): > 100 µM; TGI (IGROV1 ovarian): > 100 µM; TGI (HCT-116 colon): > 100 µM; TGI (MALME-3M melanoma): > 100 µM; TGI (LOX IMVI melanoma): > 100 µM; TGI (RXF 393 renal): > 100 µM; TGI (U251 CNS): > 100 µM; TGI (HT29 colon): > 100 µM; TGI (OVCAR-8 ovarian): > 100 µM; TGI (SK-OV-3 ovarian): > 100 µM; TGI (EKVX NSCLC): > 100 µM; TGI (SW-620 colon): > 100 µM; TGI (SF-539 CNS): > 100 µM; TGI (MDA-MB-435): > 100 µM

From PubChem BioAssay (NCI)
